{"source": "paper PMC6489322", "about": "“Biochemical characterization of recombinant Avihepatovirus 3C protease and its localization” (Virology Journal, 2019)", "target": "T1, DHAV 3C protease (avihepatovirus A1, UniProt Q076B4)", "T1 construct": "mature 3C cut from the genome polyprotein (aa 1614-1794, 181 aa); N-terminal His6 tag, pET32a (NdeI/HindIII), E. coli BL21, Ni-NTA; tag removal not described", "experiment": "FRET peptide cleavage assay, inhibition", "assay_type": "biochemical", "details": "5 uM protease, 20 uM Dabcyl-ASFMNQSKVRRFE-Edans; inhibitor at 50 and 100 uM; cleavage buffer (assay optimum pH 7.0, 150 mM NaCl, 37 °C)", "data": [{"smiles": "CCOC(=O)/C=C/[C@H](C[C@@H]1CCNC1=O)NC(=O)[C@@H](CC(=O)[C@@H](NC(=O)c1cc(C)on1)C(C)C)Cc1ccc(F)cc1", "note": "[AG7088, Rupintrivir]", "values": [{"measurement": "FRET peptide cleavage assay, inhibition", "result": "The results showed that AG7088 exhibited inhibitory activity against the DHAV 3C protease"}]}]}
